Structures are written as SMILES. Activity calls are given as the source filed them. The calls are words filed in the database; no cut-off is given here.

Our source for the Imax, inhibition and IC50 values is ChEMBL document CHEMBL5316282, “Small-Molecule Cyanamide Pan-TEAD·YAP1 Covalent Antagonists” (J Med Chem, 2023).

Test [1] addresses Transcriptional enhancer factor TEF-4 (Homo sapiens, UniProt Q15562). The experiment in a line: Inhibition of TEAD2 (unknown origin) transfected in human HEK293 cells co-transfected with renilla plasmid assessed as maximum inhibition of transcriptional activity at 0.1 to 10 uM incubated for 24 hrs by dual Glo-luciferase reporter assay relative to control. In kind it is cell-based. Conditions: dose 0.1-10 µM.

In test [2] the target is T1, Transcriptional enhancer factor TEF-3 (Homo sapiens, UniProt Q15561). Nature of the test: Displacement of FAM- labeled YAP1 peptide (60 to 99 residues) from human TEAD4 (217 to 434 residues) expressed in Escherichia coli BL21 (DE3) cells at 100 uM incubated for 24 hrs followed by dialysis buffer for 24 hrs.
T1 sequence (Q15561 whole entry, the tested form may be a part): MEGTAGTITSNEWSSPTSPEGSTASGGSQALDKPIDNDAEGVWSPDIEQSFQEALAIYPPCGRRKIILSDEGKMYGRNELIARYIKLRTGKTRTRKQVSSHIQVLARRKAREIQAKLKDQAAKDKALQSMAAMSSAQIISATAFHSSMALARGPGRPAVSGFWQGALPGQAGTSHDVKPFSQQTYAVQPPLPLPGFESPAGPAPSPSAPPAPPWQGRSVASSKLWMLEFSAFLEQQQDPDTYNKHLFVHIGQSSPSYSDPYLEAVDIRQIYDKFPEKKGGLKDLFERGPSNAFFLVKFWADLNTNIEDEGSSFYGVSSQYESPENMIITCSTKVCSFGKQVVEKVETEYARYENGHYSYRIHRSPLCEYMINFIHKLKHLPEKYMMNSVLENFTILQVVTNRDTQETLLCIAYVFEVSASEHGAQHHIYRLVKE
Test [3] has as its target T1, Transcriptional enhancer factor TEF-3. Nature of the test: Inhibition of TEAD4 (unknown origin) transfected in human HEK293 cells co-transfected with renilla plasmid assessed as maximum inhibition of transcriptional activity at 0.1 to 10 uM incubated for 24 hrs by dual Glo-luciferase reporter assay relative to control. The note with it: dose 0.1-10 µM. The class given is cell-based. In general terms: In a reporter assay the amount or activity of a reporter protein is the signal.

Test [4] addresses T2, Transcriptional enhancer factor TEF-1 (Homo sapiens, UniProt P28347). The experiment in a line: Inhibition of TEAD1 (unknown origin) transfected in human HEK293 cells co-transfected with renilla plasmid assessed as maximum inhibition of transcriptional activity at 0.1 to 10 uM incubated for 24 hrs by dual Glo-luciferase reporter assay relative to control. In kind it is cell-based. Conditions: dose 0.1-10 µM.

In test [5] the target is T1, Transcriptional enhancer factor TEF-3. Nature of the test: Displacement of FAM- labeled YAP1 peptide (60 to 99 residues) from human TEAD4 (217 to 434 residues) expressed in Escherichia coli BL21 (DE3) cells incubated for 24 hrs by fluorescence polarization-based competitive binding assay. The note with it: read-out: IC50.
Another test deals with Huh-7. Nature of the test: Antiproliferative activity against human Huh-7 cells assessed as maximum inhibition of cell viability incubated for 3 days by MTS assay relative to control. The note with it: time 3 day. In kind it is functional. (In general: Tetrazolium dyes change colour on reduction, which living cells bring about.)
Another test concerns MDA-MB-468. The experiment in a line: Antiproliferative activity against human MDA-MB-468 cells assessed as reduction in cell viability incubated for 3 days by MTS assay. The class given is functional, cell-based.
The subject of another test is SAOS-2. Nature of the test: Antiproliferative activity against human SAOS-2 cells assessed as maximum inhibition of cell viability incubated for 3 days by MTS assay relative to control. The class given is functional. The note with it: time 3 day.
Test [6] deals with T2, Transcriptional enhancer factor TEF-1. Nature of the test: Inhibition of TEAD1 (unknown origin) transfected in human HEK293 cells co-transfected with renilla plasmid assessed as maximum inhibition of transcriptional activity at 10 uM incubated for 24 hrs by dual Glo-luciferase reporter assay relative to control. The class given is cell-based.

T2 sequence (P28347 whole entry): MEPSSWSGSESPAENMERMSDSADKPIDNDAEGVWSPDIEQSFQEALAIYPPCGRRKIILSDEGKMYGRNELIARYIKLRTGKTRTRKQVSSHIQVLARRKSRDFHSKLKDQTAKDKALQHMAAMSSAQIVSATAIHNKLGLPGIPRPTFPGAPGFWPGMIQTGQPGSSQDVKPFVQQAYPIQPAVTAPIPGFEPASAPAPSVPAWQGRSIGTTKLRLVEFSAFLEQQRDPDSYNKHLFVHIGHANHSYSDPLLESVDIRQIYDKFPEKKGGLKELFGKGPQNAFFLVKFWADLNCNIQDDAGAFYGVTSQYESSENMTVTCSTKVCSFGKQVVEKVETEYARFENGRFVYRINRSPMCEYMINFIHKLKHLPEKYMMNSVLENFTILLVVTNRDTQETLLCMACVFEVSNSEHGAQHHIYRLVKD
Sequence of Transcriptional enhancer factor TEF-4 (Q15562 whole entry): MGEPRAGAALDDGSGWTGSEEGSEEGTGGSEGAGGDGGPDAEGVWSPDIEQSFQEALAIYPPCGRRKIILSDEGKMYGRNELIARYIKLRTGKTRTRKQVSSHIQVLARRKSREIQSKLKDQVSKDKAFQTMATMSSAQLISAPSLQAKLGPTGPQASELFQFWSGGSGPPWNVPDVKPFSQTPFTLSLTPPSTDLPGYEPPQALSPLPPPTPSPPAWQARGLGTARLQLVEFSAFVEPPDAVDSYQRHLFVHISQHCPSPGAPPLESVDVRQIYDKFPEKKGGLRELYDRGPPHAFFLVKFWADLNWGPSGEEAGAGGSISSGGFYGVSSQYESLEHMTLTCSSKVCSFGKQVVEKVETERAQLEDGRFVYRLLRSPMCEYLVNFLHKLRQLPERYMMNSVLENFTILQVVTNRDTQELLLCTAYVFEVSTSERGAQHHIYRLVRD

What is called inhibition is the drop in the measured response relative to a control, in per cent. As a reminder, the IC50 is the concentration that inhibits the measured activity by half. For `N#CN1Cc2cccc(Nc3cccc(C(F)(F)F)c3)c2C1`, the Imax in [1] is 42.7%; in test [3], 61.8%; in test [4], 51.2%; with Huh-7, 48.3%; with SAOS-2 it was 53.4%. Besides, the inhibition entry in test [2] was “Active”. Moreover, the figures for the IC50 (in test [5]; with MDA-MB-468) were 1100 nM and “Not Active”, respectively. In addition, the inhibition in [6] was 40%.
